Assay results from ChEMBL document CHEMBL5137022, “Antitumor Activity of Rutaecarpine in Human Colorectal Cancer Cells by Suppression of Wnt/β-Catenin Signaling” (J Nat Prod, 2022).
pIC50: −log10 of the molar value.

What was measured:
[1] = system: RKO; assay: Antiproliferative activity against human RKO cells harboring wild type beta-catenin assessed as reduction in cell viability measured after 72 hrs by SRB assay; format: functional, cell-based
[2] = system: SW480; assay: Antiproliferative activity against human SW480 cells harboring wild type beta-catenin assessed as reduction in cell viability measured after 72 hrs by SRB assay; format: functional, cell-based; conditions: SW480, 72 h
[3] = system: CCD-841CoN; assay: Antiproliferative activity against human CCD-841CoN cells assessed as reduction in cell viability measured after 72 hrs by SRB assay; format: functional, cell-based
[4] = system: HCT-15; assay: Antiproliferative activity against human HCT-15 cells harboring wild type beta-catenin assessed as reduction in cell viability measured after 72 hrs by SRB assay; format: functional, cell-based; conditions: HCT-15, 72 h
[5] = system: CCD-18Co; assay: Antiproliferative activity against human CCD-18Co cells assessed as reduction in cell viability measured after 72 hrs by SRB assay; format: functional, cell-based
[6] = system: LS174T; assay: Antiproliferative activity against human LS174T cells harboring beta-catenin mutant assessed as reduction in cell viability measured after 72 hrs by SRB assay; format: functional, cell-based
[7] = system: HCT-116; assay: Antiproliferative activity against human HCT-116 cells harboring beta-catenin mutant assessed as reduction in cell viability measured after 72 hrs by SRB assay; format: functional, cell-based; conditions: HCT-116, 72 h
[8] = Toxicity in BALB/c nude mouse xenografted with human LS174T cells assessed as effect on body weight at 10 to 30 mg/kg, ip administered 3 times per week for 21 days; format: organism-based; conditions: in vivo, 504 h, dose 10-30 mg/kg, time 21 day

SMILES	pIC50 [1]	pIC50 [2]	pIC50 [3]	pIC50 [4]	pIC50 [5]	pIC50 [6]	pIC50 [7]	Activity [8]
COc1cc([C@@H]2c3cc4c(cc3[C@@H](O[C@@H]3O[C@@H]5CO[C@@H](C)O[C@H]5[C@H](O)[C@H]3O)[C@H]3COC(=O)[C@H]23)OCO4)cc(OC)c1O [ETOPOSIDE]	5.72	6.10	5.12	5.74	4.69	6.05	6.30	
CCc1c2c(nc3ccc(OC(=O)N4CCC(N5CCCCC5)CC4)cc13)-c1cc3c(c(=O)n1C2)COC(=O)[C@]3(O)CC [IRINOTECAN]	6.15	5.42	4.88	5.57	4.73	6.15	6.22	Toxic
